Test system: passive skin sensitization for the rats
Assay: anti-allergic pharmacodynamics: passive skin sensitization of rats (anti-trichosanthes serum, Evans blue, 620 nm colorimetry)
Format: in vivo, Wistar male rats
Conditions: rat, 5 mg/Kg IV one minute before second sensitization
Text: Research of anti-allergic pharmacodynamics of the pharmaceutical composition of the present invention
Wistar male rats with body weight of 100˜120 g were used, which were provided by the Experimental Animal Center of the Chinese Academy of Medical Sciences.
1. Tablets of this pharmaceutical composition obtained from Example 1 of this invention. It was made into a suspension with 0.5%CMC-Na.
2. Positive contrast medicament: disodium chromoglycate (produced by Shanghai Pharmaceutical Factory No. 5). It is dissolved with normal saline when it is used.
After the rats were divided in groups at random, they were lavaged and dosed with the above-mentioned pharmaceutical composition of this invention according to 6 g/Kg and 3 g/Kg, once a day, continuously for 10 days. After hair on their backs of all groups of animals was removed, said animals were sensitized for the first time with hypodermic injection with anti-trichosanthes serum. At the same time, the dosing groups took the pharmaceutical composition according to 6 g/Kg, two hours before the second sensitization. The positive contrast groups were dosed with IV of disodium chromoglycate in accordance of 5 mg/Kg, one minute before the second sensitization was made. All groups of animals were given with IV of 1% EVANSLAN (including trichosanthes protein of 1 mg/ml) in accordance with 1 mg/Kg for the second sensitization. […]

O=C([O-])c1cc(=O)c2c(OCC(O)COc3cccc4oc(C(=O)[O-])cc(=O)c34)cccc2o1.[Na+].[Na+] [Positive contrast, disodium chromoglycate]
Inhibition rate: 78.2%
OD value (X ± SD) (620 nm): 0.19 ± 0.11
